Assay results as given in patent US5550110A, “Endothelin Antagonists II” (Warner-Lambert Company, priority 1994, dated 1996).
Square brackets hold non-standard residues; d marks the D form. Peptide text beside a SMILES is read from it. * marks the point of attachment. dGly(5-dibenzosuberyl) = N[C@@H](C(=O)O)C1c2ccccc2CCc2ccccc21; For = O=C*

Key:
[1] = biological target: T1, rat recombinant ETB receptor (CHO cells) (Rattus norvegicus, UniProt P21451); test: Inhibition of ET-1 stimulated arachidonic acid release (AAR-B); assay type: cell-based; conditions: ET-1 0.3 nM
T1 construct: expressed in transfected cells; host or cells: CHO cells
T1 sequence (P21451 27-442): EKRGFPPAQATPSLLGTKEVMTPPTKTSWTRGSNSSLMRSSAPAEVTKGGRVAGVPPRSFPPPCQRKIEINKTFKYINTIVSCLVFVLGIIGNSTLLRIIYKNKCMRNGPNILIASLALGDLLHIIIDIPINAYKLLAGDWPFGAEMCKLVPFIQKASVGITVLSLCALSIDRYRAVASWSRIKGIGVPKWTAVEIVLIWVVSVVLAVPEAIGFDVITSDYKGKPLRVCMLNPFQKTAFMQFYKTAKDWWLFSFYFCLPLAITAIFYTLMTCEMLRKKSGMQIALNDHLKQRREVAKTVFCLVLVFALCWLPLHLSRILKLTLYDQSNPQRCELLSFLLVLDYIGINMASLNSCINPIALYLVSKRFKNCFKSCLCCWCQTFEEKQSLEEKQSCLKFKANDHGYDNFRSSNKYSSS
Method: (§1) In Vitro Inhibition of ET-1 Stimulated Arachidonic Acid Release in Cultured Rabbit Vascular Smooth Muscle Cells (AAR-A) or CHO Cells Expressing Rat Recombinant ETB Receptor (AAR-B) by Compounds of Formula I
(§2) Antagonist activity is measured by the ability of added compounds to reduce endothelin-stimulated arachidonic acid release in cultured vascular smooth muscle cells as arachidonic acid release (AAR). [^3 H] Arachidonic Acid Loading Media (LM) is DME/F12+0.5% fetal calf serum (FCS)×0.25 mCi/mL [^3 H] arachidonic acid (Amersham). Confluent monolayers of cultured rabbit renal artery vascular smooth muscle cells (AAR-A) or CHO cells expressing rat recombinant ETB receptor (AAR-B) were incubated in 0.5 mL of the LM over 18 hours, at 37° C., in 5% CO2. The LM was aspirated and the cells were washed once with the assay buffer (Hank's balanced salt solution [BSS]+10 mM HEPES+fatty acid-free BSA (1 mg/mL)), and incubated for 5 minutes with 1 mL of the prewarmed assay buffer. This solution was aspirated, followed by an additional 1 mL of prewarmed assay buffer, and further incubated for another 5 minutes. A final 5-minute incubation was carried out in a similar manner. The same procedure was repeated with the inclusion of 10 μL of the test compound (1 nM to 1 μM) and 10 μL ET-1 (0.3 nM) and the incubation was extended for 30 minutes. This solution was then collected, […] of scintillation cocktail was added, and the amount of [^3 H] arachidonic acid was determined in a liquid scintillation counter.

[2] = test system: endothelin receptor (ETA), rabbit renal artery vascular smooth muscle cells; test: Endothelin Receptor Binding Assay-A (ERBA-A), intact cell binding of [125I]-ET-1; conditions: [125I]-ET-1 25 pM
Method: The compounds of Formula I are valuable antagonists of endothelin. […] Thus, the compounds of Formula I were tested for their ability to inhibit [^125 I]-ET-1([^125 I]-Endothelin-1) binding in a receptor assay according to the following procedures: Endothelin Receptor Binding Assay-A (ERBA-A) Intact Cell Binding of [^125 I]-ET-1 The cells used were rabbit renal artery vascular smooth muscle cells grown in a 48-well dish (1 cm^2) (confluent cells). The assay buffer was a medium 199 containing Hanks salts and 25 mM Hepes buffer (Gibco 380-2350AJ), supplemented with penicillin/streptomycin/fungizone (0.5%) and bovine serum albumin (1 mg/mL). Amersham radioiodinated endothelin-1 [^125 I]-ET-1 was used at final concentration of 20,000 cpm/0.25 mL (25 pM). […] Second, remove the assay buffers, place the dish on ice, and add 150 μL of cold assay buffer described above to each well. Third, add […] each of cold [^125 I]-ET-1 and competing ligand to the solution (at the same time if possible). Next, place dish in a 37° C. water bath for about 2 hours and gently agitate the dish every 15 minutes. Discard the radioactive incubation mixture in the sink and wash wells 3 times with 1 mL of cold phosphate buffered saline. Last, add […] of 0.25 molar sodium hydroxide, agitate for 1 hour on a rotator, and then transfer the sodium hydroxide extract to gamma counting tubes and count the radioactivity.

[3] = test system: endothelin receptor, cultured rabbit renal artery vascular smooth muscle cells; test: Inhibition of ET-1 stimulated arachidonic acid release (AAR-A); assay type: cell-based; conditions: ET-1 0.3 nM
Method: as §1, §2

[4] = biological target: T2, endothelin receptor (ETB), rat cerebellar membranes (Rattus norvegicus, UniProt P21451); test: Endothelin Receptor Binding Assay-B (ERBA-B), [125I]-ET-1 binding in rat cerebellar membranes; conditions: [125I]-ET-1 25 pM, read-out: ERRA-B IC50
T2 construct: thaw one aliquot of frozen rat cerebellar membranes (2 mg protein in 0.5 mL); from tissue; host or cells: rat cerebellum (membranes)
T2 sequence (P21451 27-442): T1 sequence (P21451 27-442)
Method: Endothelin Receptor Binding Assay-B (ERBA-B) [^125 I]-ET-1 Binding in Rat Cerebellar Membranes
The tissue is made up of 20 mM tris(hydroxymethyl)aminomethane hydrochloride (Trizma) buffer, 2 mM ethylenediaminetetra acetate, 100 μM phenylmethylsulfonyl fluoride.
First, thaw one aliquot of frozen rat cerebellar membranes (2 mg protein in 0.5 mL). Next, add 0.5 mL membrane aliquot to 4.5 mL cold tissue buffer, polytron at 7,500 revolutions per minute for 10 seconds. Finally, dilute tissue suspension 1/100 (0.1 mL suspension+9.9 mL tissue buffer), polytron again, and place ice.
Medium 199 with Hank's salts plus 25 mM Hepes+1 mg/mL bovine serum albumin.
Amersham [^125 I]-ET-1 (aliquots of 2×10^6 cpm per […] aliquot of [^125 I]-ET-1 with 5.2 mL dilution buffer, place on ice until use (final concentration will be 20,000 cpm per tube, or 25 pM).
Add 50 μL each of cold [^125 ]-ET-1 and competing ligand to tubes on ice. Mix in 150 μL of tissue to each tube, vortex briefly, then tap to force all liquids to bottom (total assay volume=250 μL). Then place the tubes in a 37° C. water bath for 2 hours.
Add 2.5 mL cold wash buffer (50 mM Trizma buffer) to each tube, filter, and then wash tube with additional 2.5 mL wash buffer and add to filter. Finally, wash filters with an additional 2.5 mL of cold wash buffer.
Count filters for radioactivity in gamma counter.

Row | SMILES | IC50 [1] [nM] | IC50 [2] [nM] | IC50 [3] [nM] | IC50 [4] [nM]
1 | CC[C@H](C)[C@H](NC(=O)[C@H](CC(=O)O)NC(=O)[C@H](CC(C)C)NC(=O)[C@H](NC(C)=O)C1c2ccccc2Sc2ccccc21)C(=O)N[C@H](C(=O)N[C@@H](Cc1c[nH]c2ccccc12)C(=O)O)[C@@H](C)CC [Example 5, Ac-D-Txg-Leu-Asp-Ile-Ile-Trp] (HELM PEPTIDE1{[ac].[O=C([C@H](N[*:1])C1c2ccccc2Sc2ccccc21)[*:2]].L.D.I.I.W}$$$$V2.0) | 62 | 18 | 50 | 180
2 | CC[C@H](C)[C@H](NC(=O)[C@H](CC(=O)O)NC(=O)[C@H](CC(C)C)NC(=O)[C@@H](N)C1c2ccccc2Sc2ccccc21)C(=O)N[C@H](C(=O)N[C@@H](Cc1c[nH]c2ccccc12)C(=O)O)[C@@H](C)CC [Example 11, L-Txg-Leu-Asp-Ile-Ile-Trp] (HELM PEPTIDE1{[N[C@H](C(=O)[*:2])C1c2ccccc2Sc2ccccc21].L.D.I.I.W}$$$$V2.0) |  | 4500 |  | 2100
3 | CC[C@H](C)[C@H](NC(=O)[C@H](CC(=O)O)NC(=O)[C@H](CC(C)C)NC(=O)[C@@H](N)C1c2ccccc2CCc2ccccc21)C(=O)N[C@H](C(=O)N[C@@H](Cc1c[nH]c2ccccc12)C(=O)O)[C@@H](C)CC [Example 3, L-Bhg-Leu-Asp-Ile-Ile-Trp] (HELM PEPTIDE1{[N[C@H](C(=O)[*:2])C1c2ccccc2CCc2ccccc21].L.D.I.I.W}$$$$V2.0) |  | 2500 | 2360 | 3000
4 | CC[C@H](C)[C@H](NC(=O)[C@H](CC(=O)O)NC(=O)[C@H](CC(C)C)NC(=O)[C@@H](NC(C)=O)C1c2ccccc2CCc2ccccc21)C(=O)N[C@H](C(=O)N[C@@H](Cc1c[nH]c2ccccc12)C(=O)O)[C@@H](C)CC [Example 4, Ac-L-Bhg-Leu-Asp-Ile-Ile-Trp] (HELM PEPTIDE1{[ac].[O=C([C@@H](N[*:1])C1c2ccccc2CCc2ccccc21)[*:2]].L.D.I.I.W}$$$$V2.0) |  |  |  | 710
5 | CC[C@H](C)[C@H](NC(=O)[C@@H](NC(=O)[C@H](CC(=O)O)N(C)C(=O)[C@H](CC(C)C)NC(=O)[C@H](NC(C)=O)C1c2ccccc2CCc2ccccc21)[C@@H](C)CC)C(=O)N[C@@H](Cc1c[nH]c2ccccc12)C(=O)O [Example 15, Ac-D-Bhg-Leu-N-MeAsp-Ile-Ile-Trp] (HELM PEPTIDE1{[ac].[O=C([C@H](N[*:1])C1c2ccccc2CCc2ccccc21)[*:2]].L.[meD].I.I.W}$$$$V2.0) |  |  |  | 1900
6 | CC[C@H](C)[C@H](NC(=O)[C@H](CC(=O)O)NC(=O)[C@H](CCCNC(=N)N)NC(=O)[C@H](NC(C)=O)C1c2ccccc2CCc2ccccc21)C(=O)N[C@H](C(=O)N[C@@H](Cc1cn(C=O)c2ccccc12)C(=O)O)[C@@H](C)CC [Example 18, Ac-D-Bhg-Arg-Asp-Ile-Ile-Trp(For)] (Ac-[dGly(5-dibenzosuberyl)]RDIIW(For)-OH) |  | 79 |  | 4900
7 | CC[C@H](C)[C@H](NC(=O)[C@H](CC(=O)O)NC(=O)[C@H](CC(C)C)NC(=O)[C@H](NC(C)=O)C1c2ccccc2Oc2ccccc21)C(=O)N[C@H](C(=O)N[C@@H](Cc1c[nH]c2ccccc12)C(=O)O)[C@@H](C)CC [Example 10, Ac-D-Oxn-Leu-Asp-Ile-Ile-Trp] (HELM PEPTIDE1{[ac].[O=C([C@H](N[*:1])C1c2ccccc2Oc2ccccc21)[*:2]].L.D.I.I.W}$$$$V2.0) |  | 120 |  | 550
8 | CC[C@H](C)[C@H](NC(=O)[C@H](CC(=O)O)NC(=O)[C@H](CC(C)C)NC(=O)[C@H](N)C1c2ccccc2Sc2ccccc21)C(=O)N[C@H](C(=O)N[C@@H](Cc1c[nH]c2ccccc12)C(=O)O)[C@@H](C)CC [Example 13, D-Txg-Leu-Asp-Ile-Ile-Trp] (HELM PEPTIDE1{[N[C@@H](C(=O)[*:2])C1c2ccccc2Sc2ccccc21].L.D.I.I.W}$$$$V2.0) | 2400 | 830 | 320 | 380
9 | CC[C@H](C)[C@H](NC(=O)[C@H](CC(=O)O)NC(=O)[C@H](CCCN=C(N)N)NC(=O)[C@H](NC(C)=O)C1c2ccccc2CCc2ccccc21)C(=O)N[C@H](C(=O)N[C@@H](Cc1c[nH]c2ccccc12)C(=O)O)[C@@H](C)CC [Example 14, Ac-D-Bhg-Arg-ASp-Ile-Ile-Trp] (HELM PEPTIDE1{[ac].[O=C([C@H](N[*:1])C1c2ccccc2CCc2ccccc21)[*:2]].R.D.I.I.W}$$$$V2.0) |  |  |  | 40
10 | CC[C@H](C)[C@H](NC(=O)[C@H](CC(=O)O)NC(=O)[C@H](CC(C)C)NC(=O)[C@@H](NC(C)=O)C1c2ccccc2Sc2ccccc21)C(=O)N[C@H](C(=O)N[C@@H](Cc1c[nH]c2ccccc12)C(=O)O)[C@@H](C)CC [Example 12, Ac-L-Txg-Leu-Asp-Ile-Ile-Trp] (HELM PEPTIDE1{[ac].[O=C([C@@H](N[*:1])C1c2ccccc2Sc2ccccc21)[*:2]].L.D.I.I.W}$$$$V2.0) |  | 1500 |  | 2100
11 | CC[C@H](C)[C@H](NC(=O)[C@H](Cc1ccccc1)NC(=O)[C@H](CC(=O)O)NC(=O)[C@H](CC(C)C)NC(=O)[C@H](NC(C)=O)C1c2ccccc2CCc2ccccc21)C(=O)N[C@@H](Cc1c[nH]c2ccccc12)C(=O)O [Example 17, Ac-D-Bhg-Leu-Asp-Phe-Ile-Trp] (HELM PEPTIDE1{[ac].[O=C([C@H](N[*:1])C1c2ccccc2CCc2ccccc21)[*:2]].L.D.F.I.W}$$$$V2.0) |  | 68 |  | 30
12 | CC[C@H](C)[C@H](NC(=O)[C@H](CC(=O)O)NC(=O)[C@H](CC(C)C)NC(=O)[C@@H](NC(C)=O)C1c2ccccc2Oc2ccccc21)C(=O)N[C@H](C(=O)N[C@@H](Cc1c[nH]c2ccccc12)C(=O)O)[C@@H](C)CC [Example 9, Ac-L-Oxn-Leu-Asp-Ile-Ile-Trp] (HELM PEPTIDE1{[ac].[O=C([C@@H](N[*:1])C1c2ccccc2Oc2ccccc21)[*:2]].L.D.I.I.W}$$$$V2.0) |  | 50 |  | 930
